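Results reflect a 48-hour exposure of cells in 96-well plates to compound at five concentrations. GI50 is the concentration that inhibits growth by half.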 The source made the active and inactive calls. No stated cut-off is given here; in the data, active = GI50 up to about 1.1 µM and inactive = higher.
Columns and labels:
Assay in all cases: DTP human tumour cell line panel, 48 h
SK-MEL-28 = system: SK-MEL-28
SF-295 = system: SF-295
ACHN = system: ACHN
U-251 = system: U-251
HOP-62 = system: HOP-62
HT-29 = system: HT-29
MOLT-4 = system: MOLT-4
PC-3 = system: PC-3
IGROV-1 = system: IGROV-1
UACC-257 = system: UACC-257
SF-539 = system: SF-539
M14 = system: M14
T47D = system: T47D
MCF7 = system: MCF7
EKVX = system: EKVX
COLO 205 = system: COLO 205
RPMI-8226 = system: RPMI-8226
OVCAR-5 = system: OVCAR-5
HCC 2998 = system: HCC 2998
HL-60 = system: HL-60

SMILES | GI50 (SK-MEL-28) | GI50 (SF-295) | GI50 (ACHN) | GI50 (U-251) | GI50 (HOP-62) | GI50 (HT-29) | GI50 (MOLT-4) | GI50 (PC-3) | GI50 (IGROV-1) | GI50 (UACC-257) | GI50 (SF-539) | GI50 (M14) | GI50 (T47D) | GI50 (MCF7) | GI50 (EKVX) | GI50 (COLO 205) | GI50 (RPMI-8226) | GI50 (OVCAR-5) | GI50 (HCC 2998) | GI50 (HL-60)
N#CC1(C#N)C(c2ccccc2)NC23CCCCC2C1(C#N)C(=O)N3 (stereo not given) | > 100 µM (inactive) | > 100 µM (inactive) | > 100 µM (inactive) | > 100 µM (inactive) | > 100 µM (inactive) | > 100 µM (inactive) | > 100 µM (inactive) | > 100 µM (inactive) | > 100 µM (inactive) | > 100 µM (inactive) | > 100 µM (inactive) | > 100 µM (inactive) | > 100 µM (inactive) | > 100 µM (inactive) | > 100 µM (inactive) | > 100 µM (inactive) | > 100 µM (inactive) | > 100 µM (inactive) | > 100 µM (inactive) | –
C/C(C[n+]1ccccc1)=N\N=C(N)N | > 100 µM (inactive) | > 100 µM (inactive) | > 100 µM (inactive) | > 100 µM (inactive) | > 100 µM (inactive) | > 100 µM (inactive) | > 100 µM (inactive) | > 100 µM (inactive) | > 100 µM (inactive) | > 100 µM (inactive) | – | > 100 µM (inactive) | > 100 µM (inactive) | > 100 µM (inactive) | > 100 µM (inactive) | > 100 µM (inactive) | > 100 µM (inactive) | > 100 µM (inactive) | > 100 µM (inactive) | > 100 µM (inactive)
O=C1CCCC1C(O)(C(F)(F)Cl)C(F)(F)Cl (stereo not given) | > 10 µM (inactive) | > 10 µM (inactive) | > 10 µM (inactive) | > 10 µM (inactive) | > 10 µM (inactive) | > 10 µM (inactive) | > 10 µM (inactive) | > 10 µM (inactive) | > 10 µM (inactive) | > 10 µM (inactive) | > 10 µM (inactive) | > 10 µM (inactive) | > 10 µM (inactive) | > 10 µM (inactive) | > 10 µM (inactive) | > 10 µM (inactive) | > 10 µM (inactive) | > 10 µM (inactive) | > 10 µM (inactive) | > 10 µM (inactive)
CC(=O)c1ccc(NC(=O)/C(CC(=O)/C=C/c2ccccc2)=N/NC(N)=S)cc1 | > 100 µM (inactive) | > 100 µM (inactive) | 66.1 µM (inactive) | > 100 µM (inactive) | > 100 µM (inactive) | 41.5 µM (inactive) | 46.5 µM (inactive) | > 100 µM (inactive) | 53.1 µM (inactive) | > 100 µM (inactive) | > 100 µM (inactive) | > 100 µM (inactive) | 32.6 µM (inactive) | 34.4 µM (inactive) | 47.2 µM (inactive) | – | 69.3 µM (inactive) | > 100 µM (inactive) | > 100 µM (inactive) | 80.7 µM (inactive)
O=C(/C=C/c1ccccc1)Oc1ccc(C(=O)/C=C/c2ccccc2)cc1 | 12.4 µM (inactive) | 12.9 µM (inactive) | 11.9 µM (inactive) | – | 12.9 µM (inactive) | 12.1 µM (inactive) | 11.2 µM (inactive) | 9.31 µM (inactive) | 11.5 µM (inactive) | 13.6 µM (inactive) | 3.24 µM (inactive) | 14.1 µM (inactive) | 11 µM (inactive) | 6.08 µM (inactive) | 13.3 µM (inactive) | 13.9 µM (inactive) | 3.25 µM (inactive) | 13.7 µM (inactive) | 8.47 µM (inactive) | 2.84 µM (inactive)
C[Si](C)(N[Si](C)(C)OCCc1ccccc1)OCCc1ccccc1 | > 100 µM (inactive) | > 100 µM (inactive) | > 100 µM (inactive) | > 100 µM (inactive) | > 100 µM (inactive) | > 100 µM (inactive) | – | > 100 µM (inactive) | > 100 µM (inactive) | > 100 µM (inactive) | – | > 100 µM (inactive) | > 100 µM (inactive) | > 100 µM (inactive) | > 100 µM (inactive) | – | > 100 µM (inactive) | > 100 µM (inactive) | > 100 µM (inactive) | > 100 µM (inactive)
Cc1cc(C)c2c(O)cc(-c3cccc4ccccc34)nc2n1 | 10.8 µM (inactive) | 0.615 µM (active) | 0.594 µM (active) | 0.426 µM (active) | 10 µM (inactive) | 0.363 µM (active) | 0.863 µM (active) | 0.641 µM (active) | 1.49 µM (inactive) | 0.238 µM (active) | 0.703 µM (active) | 0.745 µM (active) | 24.4 µM (inactive) | 0.719 µM (active) | 0.975 µM (active) | 0.41 µM (active) | 0.671 µM (active) | 2.29 µM (inactive) | 1.14 µM (inactive) | 0.26 µM (active)
N#Cc1c(N2CCCC2)ncn(-c2ccccc2)c1=S | > 100 µM (inactive) | > 100 µM (inactive) | > 100 µM (inactive) | > 100 µM (inactive) | > 100 µM (inactive) | > 100 µM (inactive) | > 100 µM (inactive) | > 100 µM (inactive) | > 100 µM (inactive) | > 100 µM (inactive) | > 100 µM (inactive) | > 100 µM (inactive) | > 100 µM (inactive) | > 100 µM (inactive) | > 100 µM (inactive) | > 100 µM (inactive) | > 100 µM (inactive) | > 100 µM (inactive) | > 100 µM (inactive) | > 100 µM (inactive)
COc1oc(C2C/C(=C/C(C)=C/C(C)=C/C(C)=C/c3ccc([N+](=O)[O-])cc3)CO2)c(C)c(=O)c1C (stereo not given) | 6.1 µM (inactive) | 2.47 µM (inactive) | 1.12 µM (active) | 6.27 µM (inactive) | 19.9 µM (inactive) | 3.14 µM (inactive) | 1.67 µM (inactive) | 2.02 µM (inactive) | 13.2 µM (inactive) | 5.32 µM (inactive) | 12 µM (inactive) | 6.03 µM (inactive) | 1.04 µM (active) | 1.59 µM (inactive) | 2.58 µM (inactive) | 3.55 µM (inactive) | 0.55 µM (active) | 47.4 µM (inactive) | 22.4 µM (inactive) | 1.68 µM (inactive)
O=C(Nc1nccs1)c1c(O)nc2sccn2c1=O | > 10 µM (inactive) | > 10 µM (inactive) | > 10 µM (inactive) | > 10 µM (inactive) | > 10 µM (inactive) | > 10 µM (inactive) | > 10 µM (inactive) | > 10 µM (inactive) | > 10 µM (inactive) | – | > 10 µM (inactive) | > 10 µM (inactive) | > 10 µM (inactive) | > 10 µM (inactive) | > 10 µM (inactive) | > 10 µM (inactive) | > 10 µM (inactive) | > 10 µM (inactive) | > 10 µM (inactive) | > 10 µM (inactive)
Cc1ccc(N/N=C2\C3=C(CCC(C)(C)O3)C(=O)c3ccccc32)cc1 | 21.9 µM (inactive) | 14.7 µM (inactive) | 23.9 µM (inactive) | 37.5 µM (inactive) | 20.6 µM (inactive) | 18.8 µM (inactive) | 28.8 µM (inactive) | 37.6 µM (inactive) | 29.1 µM (inactive) | 11 µM (inactive) | 39.3 µM (inactive) | 16.9 µM (inactive) | 18.2 µM (inactive) | 13.7 µM (inactive) | 25.5 µM (inactive) | 24.7 µM (inactive) | 26.5 µM (inactive) | 18.4 µM (inactive) | 19.7 µM (inactive) | 15.2 µM (inactive)
CC(Cc1ccccc1)NC1=NCCO1 (stereo not given) | – | > 100 µM (inactive) | 46 µM (inactive) | 25.1 µM (inactive) | 84.1 µM (inactive) | 20.1 µM (inactive) | 47 µM (inactive) | 34.8 µM (inactive) | 36 µM (inactive) | – | 14 µM (inactive) | – | 35.1 µM (inactive) | > 100 µM (inactive) | 54 µM (inactive) | 17.5 µM (inactive) | 37.8 µM (inactive) | > 100 µM (inactive) | 27.6 µM (inactive) | –
O=C1CC(=O)NC(NN2C(=O)/C(=C/c3ccc(Cl)c(Cl)c3)N=C2c2ccccc2)=N1 | 28.8 µM (inactive) | 32 µM (inactive) | 40.2 µM (inactive) | 23.9 µM (inactive) | 23.9 µM (inactive) | 22.9 µM (inactive) | 15.2 µM (inactive) | 23.1 µM (inactive) | 31.1 µM (inactive) | 34.2 µM (inactive) | 20.8 µM (inactive) | 28.8 µM (inactive) | 47.1 µM (inactive) | 16.7 µM (inactive) | – | 18.8 µM (inactive) | 13.6 µM (inactive) | 46.7 µM (inactive) | 19.7 µM (inactive) | –
O=C(O)C(CSC(c1ccccc1)(c1ccccc1)c1ccccc1)/N=C/c1cccs1 (stereo not given) | 7.48 µM (inactive) | 1.26 µM (inactive) | 12.8 µM (inactive) | 2 µM (inactive) | 5.62 µM (inactive) | 2.96 µM (inactive) | 4.19 µM (inactive) | 1.89 µM (inactive) | 1.95 µM (inactive) | 4.13 µM (inactive) | 1.27 µM (inactive) | 0.378 µM (active) | 3.37 µM (inactive) | 0.853 µM (active) | 5.42 µM (inactive) | 1.69 µM (inactive) | 2.45 µM (inactive) | 5.45 µM (inactive) | 2.06 µM (inactive) | 2.54 µM (inactive)
NS(=O)(=O)c1ccc(/N=N/c2ccc(O)c(C(=O)O)c2)cc1 [SALAZOSULFAMIDE] | > 100 µM (inactive) | > 100 µM (inactive) | > 100 µM (inactive) | > 100 µM (inactive) | > 100 µM (inactive) | > 100 µM (inactive) | > 100 µM (inactive) | > 100 µM (inactive) | > 100 µM (inactive) | > 100 µM (inactive) | – | > 100 µM (inactive) | > 100 µM (inactive) | > 100 µM (inactive) | > 100 µM (inactive) | > 100 µM (inactive) | > 100 µM (inactive) | > 100 µM (inactive) | > 100 µM (inactive) | 29.1 µM (inactive)
